Measured values taken from US11186534B2, “Derivatives of sulindac can protect normal cells against oxidative damage” (University of South Alabama, priority 2017, dated 2021).

How the values were obtained:
[1] = test system: Retinal pigmented epithelium cells (ARPE-19); test: Cell viability assay: protection of RPE cells against oxidative damage from TBHP; assay type: cell-based; details: for Cyto-protective activity*: RPE cells, TBHP as oxidizing agent, relative to Sulindac; for Cyto-protective activity*: key: active = more active than Sulindac; inactive = less active than Sulindac
Experimental: Cultured cells and reagents: Retinal pigmented epithelium cells (ARPE-19) were obtained from American Type Culture Collection (ATCC, Manassas, Va.) and cultured at 37° C. in 5% CO2. All chemicals were purchased from Sigma unless specified.
Cell viability assay: Cells were cultured and assayed for cell viability essentially as described previously (14). ARPE-19 cells were plated at 10,000 cells per well in a 96-well plate. The cells were grown for 18-20 hours, the medium discarded in aseptic conditions and replaced with fresh culture medium containing the indicated drug concentration. The plates were incubated for 24 hours at 37° C. in a 5% CO2 incubator in the presence of sulindac or Compound 9. To examine the treatment effects on oxidative damage to RPE cells, cells were washed and incubated in media without serum with various concentrations of tert-butyl hydroperoxide (TBHP) for an additional 24h. The culture medium was then discarded and the cells were thoroughly rinsed in PBS. Cell viability was determined by using the Cell Titer 96 Aqueous One Cell Proliferation Assay (Promega) according to the manufacturer's instructions. The assay utilizes a tetrazolium compound that is converted into a water-soluble formazan by the action of cellular NADH oxidase activity in metabolically active cells. The formazan was quantified by measuring the absorbance at 490 nm using a colorimetric microtiter plate reader (SpectraMax Plus; Molecular Devices).
In the present studies, a series of compounds were identified as having the ability to protect RPE cells against oxidative damage using tert-butyl hydroperoxide (TBHP), an organic peroxide, as an oxidizing agent (10).

[2] = test system: rat intact hearts (Langendorff model); test: Langendorff model of ischemia/reperfusion injury, LDH release; assay type: in vivo, Sprague Dawley rats; details: 0.7 mg/kg i.p. daily for 48 h; FIG. 9
Experimental: The ex vivo Langendorff procedure is a well-established preparation used to investigate heart physiology, ischemia/reperfusion injury, and other cardiovascular insults (23, 24; also see, e.g., reference 22). Sprague Dawley rats (275-325g) were administered either no drug or Compound 9 daily (at 0.7 mg/kg) for a total of two days (two administrations in total). Forty-eight hours after the start of drug exposure, hearts were removed and exposed to 45 min no flow ischemia and 2 h reperfusion in the Langendorff model (hearts were first equilibrated in KHB buffer for 10 min and then subjected to 45 min ischemia followed by 2 h reperfusion with KHB buffer), in the absence of drug.
In LDH and TTC assays for the Langendorff Preparation, coronary effluent samples (500 μL) from the Langendorff preparation were obtained upon attachment of excised heart, every 15 min before ischemia, immediately after 45 min ischemia, and at 15 min intervals during reperfusion. LDH was measured (using a Cytotox-96 nonradioactive cytotoxicity assay kit (Promega), with the absorbance read at 490 nm). Immediately upon completion, the heart was sliced into 2-mm cross-sectional pieces and slices were incubated for 30 min with 1% 2,3,5-triphenyl tetrazolium chloride (TTC) stain in Krebs-Henseleit buffer (KHB) (pH=7.4) at 37° C. to distinguish between viable (red) and nonviable (white) tissue. Tissue slices were stored overnight in 10% formaldehyde before measurement of infarct size using NIH-Image J software.
The protective (preconditioning) effect of Compound 9 was evaluated in an art-recognized Langendorff model of ischemia/reperfusion injury. Compound 9 was administered via i.p. injection to test animals daily for two days, and animal hearts were then removed for performance of the Langendorff procedure (described above and known in the art).

cells [3] = details: background; cited from earlier work
cells [4] = details: background; cited from earlier work; remark: listed apart in the source
COX = details: background; cited from earlier work

| SMILES | Cyto-protective activity* [1] | other results |
| --- | --- | --- |
| COc1ccc2c(c1)C(CC(=O)O)=C(C)/C2=C/c1ccc(OC)c(O)c1 [Compound 15, (Z)-2-(1-(3-hydroxy-4-methoxybenzylidene)-5-methoxy-2-methyl-1H-inden-3-yl)acetic acid] | inactive | – |
| COc1cc(/C=C2/C(C)=C(CC(=O)NCc3ccco3)c3cc(OC)c(OC)cc32)cc(OC)c1 [Compound 21, (Z)-2-(1-(3,5-dimethoxybenzylidene)-5,6-dimethoxy-2-methyl-1H-inden-3-yl)-N-(furan-2-ylmethyl)acetamide] | inactive | – |
| COc1cc(/C=C2/C(C)=C(CC(=O)O)c3cc(C)ccc32)cc(OC)c1OC [Compound 8, (Z)-2-(2,5-dimethyl-1-(3,4,5-trimethoxybenzylidene)-1H-inden-3-yl)acetic acid] | inactive | – |
| COc1ccc2c(c1)C(Cc1nc3cnccc3[nH]1)=C(C)/C2=C/c1cc(OC)c(OC)c(OC)c1 [Compound 19, (Z)-2-((5-methoxy-2-methyl-1-(3,4,5-trimethoxybenzylidene)-1H-inden-3-yl)methyl)-1H-imidazo[4,5-c]pyridine] | inactive | – |
| COc1cc(/C=C2/C(C)=C(CC(=O)O)c3cc(OC)c(OC)cc32)cc(OC)c1 [Compound 17, (Z)-2-(1-(3,5-dimethoxybenzylidene)-5,6-dimethoxy-2-methyl-1H-inden-3-yl)acetic acid] | inactive | – |
| COc1cc2c(cc1OC)/C(=C\c1ccc3c(c1)OCO3)C(C)=C2CC(=O)O [Compound 14, (Z)-2-(1-(benzo[d][1,3]dioxol-5-ylmethylene)-5,6-dimethoxy-2-methyl-1H-inden-3-yl)acetic acid] | inactive | – |
| CC1=C(CC(=O)[O-])c2cc(F)ccc2/C1=C\c1ccc(N(C)C)cc1.[Na+] [Compound 2, sodium (Z)-2-(1-(4-(dimethylamino)benzylidene)-5-fluoro-2-methyl-1H-inden-3-yl)acetate] | inactive | – |
| COc1cc2c(cc1OC)/C(=C\c1cc(OC)c(OC)c(OC)c1)C(C)=C2CC(=O)NCc1ccco1 [Compound 20, (Z)-2-(5,6-dimethoxy-2-methyl-1-(3,4,5-trimethoxybenzylidene)-1H-inden-3-yl)-N-(furan-2-ylmethyl)acetamide] | inactive | – |
| COc1ccc2c(c1)C(CC(=O)O)=C(C)/C2=C/c1ccc(O)c(OC)c1 [Compound 13, (Z)-2-(1-(4-hydroxy-3-methoxybenzylidene)-5-methoxy-2-methyl-1H-inden-3-yl)acetic acid] | inactive | – |
| COc1ccc2c(c1)C(CC(=O)O)=C(C)/C2=C/c1cc(Br)c(O)c(OC)c1 [Compound 16, (Z)-2-(1-(3-bromo-4-hydroxy-5-methoxybenzylidene)-5-methoxy-2-methyl-1H-inden-3-yl)acetic acid] | inactive | – |
| COc1ccc2c(c1)C(CC(=O)O)=C(C)/C2=C/c1cc(OC)c(OC)c(OC)c1 [Compound 11, (Z)-2-(5-methoxy-2-methyl-1-(3,4,5-trimethoxybenzylidene)-1H-inden-3-yl)acetic acid] | inactive | – |
| COc1ccc2c(c1)/C(=C\c1cc(OC)c(OC)c(OC)c1)C(C)=C2CC(=O)O [Compound 3, (Z)-2-(6-methoxy-2-methyl-1-(3,4,5-trimethoxybenzylidene)-1H-inden-3-yl)acetic acid] | inactive | – |
| COc1cc2c(cc1OC)/C(=C\c1ccc(N(C)C)cc1)C(C)=C2CC(=O)NCc1ccco1 [Compound 22, (Z)-2-(1-(4-(dimethylamino)benzylidene)-5,6-dimethoxy-2-methyl-1H-inden-3-yl)-N-(furan-2-ylmethyl)acetamide] | inactive | – |
| COc1ccc2c(c1)C(CC(=O)O)=C(C)/C2=C/c1ccc(N(C)C)cc1 [Compound 6, (Z)-2-(1-(4-(dimethylamino)benzylidene)-5-methoxy-2-methyl-1H-inden-3-yl)acetic acid] | inactive | – |
| COc1cc2c(cc1OC)/C(=C\c1cc(OC)c(O)c(OC)c1)C(C)=C2CC(=O)NCc1ccco1 [Compound 18, (Z)-N-(furan-2-ylmethyl)-2-(1-(4-hydroxy-3,5-dimethoxybenzylidene)-5,6-dimethoxy-2-methyl-1H-inden-3-yl)acetamide] | inactive | – |
| COc1ccc2c(c1)C(CC(=O)O)=C(C)/C2=C/c1cc(OC)c(O)c(OC)c1 [Compound 23, (Z)-2-(1-(4-hydroxy-3,5-dimethoxybenzylidene)-5-methoxy-2-methyl-1H-inden-3-yl)acetic acid] | inactive | – |
| COc1cc(/C=C2/C(C)=C(CC(=O)O)c3cc(OC)ccc32)cc(OC)c1 [Compound 7, (Z)-2-(1-(3,5-dimethoxybenzylidene)-5-methoxy-2-methyl-1H-inden-3-yl)acetic acid] | inactive | – |
| COc1ccc2c(c1)C(CC(=O)O)=C(C)/C2=C/c1ccc(OCc2ccccc2)cc1 [Compound 10, (Z)-2-(1-(4-(benzyloxy)benzylidene)-5-methoxy-2-methyl-1H-inden-3-yl)acetic acid] | active | Effectiveness in protecting RPE cells from TBHP compared with sulindac ([1]; compound at 25 μM vs sulindac 200 μM, FIG. 2): equally effective as sulindac; Fold lower effective concentration relative to sulindac (RPE cell protection) ([1]; sulindac 200 μM, Compound 10 at 25 μM, Compound 9 at 10 μM): 8 × |
| COc1cc(/C=C2/C(C)=C(CC(=O)O)c3cc(F)ccc32)cc(OC)c1OC [Compound 12, (Z)-2-(5-fluoro-2-methyl-1-(3,4,5-trimethoxybenzylidene)-1H-inden-3-yl)acetic acid] | inactive | – |
| COc1ccc2c(c1)C(CC(=O)O)=C(C)/C2=C/c1cc(OC)c(Br)c(OC)c1 [Compound 5, (Z)-2-(1-(4-bromo-3,5-dimethoxybenzylidene)-5-methoxy-2-methyl-1H-inden-3-yl)acetic acid] | inactive | – |
| CC1=C(CC(=O)O)c2cc(F)ccc2/C1=C\c1ccc([S+](C)[O-])cc1 (centres unmarked) [sulindac] | – | Protective effect during the 45 min ischemia phase [2]: no protective effect; Protective effect during the 2 h reperfusion phase [2]: not as robust; TBHP concentration above which no longer protective for RPE cells ([1]; sulindac at 200 μM, FIG. 2): above 300 μM |
| CC1=C(CC(=O)O)c2cc(F)ccc2/C1=C\c1ccc(S(C)(=O)=O)cc1 [Sulindac sulfone] | – | Activity in protecting cells against oxidative damage relative to sulindac (cells [3]): more active than sulindac; Toxicity to cells relative to sulindac (cells [4]): significantly more toxic; COX inhibitory activity (COX): no COX inhibitory activity |
| COc1ccc2c(c1)C(CC(=O)O)=C(C)/C2=C/c1ccc(SC(F)(F)F)cc1 [Compound 4, (Z)-2-(5-methoxy-2-methyl-1-(4-((trifluoromethyl)thio)benzylidene)-1H-inden-3-yl)acetic acid] | inactive | – |
